Measured values as given in US20220235043A1, “SUBSTITUTED SULFONAMIDE PYRROLOPYRIDINES AS JAK INHIBITORS” (ACLARIS THERAPEUTICS, INC., priority 2019, published 2022).

How the values were obtained:
[1] = molecular target: T1, JAK2 (Homo sapiens, UniProt O60674); assay: JAK2 enzyme activity assay (Thermo Fisher Selectscreen, Z-lyte); type: biochemical; conditions: read-out: JAK2 Inhibition IC50
T1 construct: purchased Thermo Fisher Scientific (SelectScreen service)
Procedure, shortened: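 Z-lyte FRET kinase format: 0.12-0.5 ng JAK2 with 2 μM Tyr 06 peptide in HEPES pH 7.5, 10 mM MgCl2, 1 h reaction, then development reagent. Compounds were run as 11-point dose-response, 2% DMSO vehicle. IC50 came from 4-parameter logistic fit of emission ratio.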

[2] = system: IFNγ stimulated STAT1 phosphorylation on Tyr701 (JAK1/2); assay: JAK1/2 cellular target modulation: IFNγ stimulated phospho-STAT1 in human PBMC; type: cell-based; conditions: IFNγ 10 ng/ml, read-out: Infγ-STAT1 IC50
Procedure, shortened: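 Thawed human PBMC (200,000/well) preincubated with compound 1 h at 37°C, then stimulated with IL-12 1.7 ng/ml for 25 min, IFNγ 10 ng/ml for 10 min, or IL-2 25 ng/ml for 5 min. Lysate phospho-STAT4 Tyr693 and phospho-STAT5 Tyr694 read by MSD; phospho-STAT1 Tyr701 by sandwich ELISA.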

[3] = GI Exposure PK in Mice; type: in vivo; conditions: mouse, male BalbC mice, oral dose of 5 mg/kg
Experimental: The test compound, Example 75, was wetted with ˜0.025% of Tween-20 and triturated in a mortar and pestle, then slowly 0.5% of methyl cellulose was added to make up the final volume to 7.25 mL. The BalbC test animals were subjected to anesthesia induced with a mixture of 5% isoflurane and 0.8-1.5 L/min O2 gas flow. The formulated test compound was then dosed via oral gavage. At various time points (0.5, 1, 2, 4, 6 and 8 h) blood samples (˜100 μL) were collected from portal vein (pre-hepatic) followed by cardiac puncture (circulating) into tubes containing 2% w/v aqueous K2 EDTA solution as per time points. Post blood sampling, the gastro intestine (GI) tissues were collected from the mice at the same time points. The GI tissue was dissected into different parts as duodenum, jejunum, ileum and colon. The separated tissues were washed by flushing with PBS via oral gavage needle to remove GI content. Post collection all the tissues were blotted, weighed and homogenized with PBS buffer (pH 7.4). The blood samples were immediately placed on ice and centrifuged within 30 min at 4° C. for 5 min at 8,000 rpm to obtain plasma. Plasma was transferred by pipettes to pre-labelled centrifuge tubes and immediately transferred to −80° C. until bioanalysis. Tissue samples were placed in pre-labelled container and all samples were kept in −80° C. until homogenized. The homogenate was stored immediately in −80° C. until bioanalysis was conducted. Study samples were thawed to room temperature and 50 μL of sample was aliquoted into pre-labeled vials. To these was added 400 μL of 100% acetonitrile containing an IS (100 ng/mL; warfarin, tolbutamide and loperamide). The vials were mixed well, vortexed for 5 min, followed by centrifugation for 5 min at 14000 rpm at 4° C. The supernatant was separated and same was injected on LC-MS/MS. Plasma and GI tissue levels of test compound were determined by LC-MS analysis using a standard curve in the text matrix. Individual concentration-time data were analyzed using Phoenix WinNonlin (Version 8.1) by the non-compartmental analysis (NCA) method.

[4] = portal vein plasma, Portal plasma

T1 sequence (O60674 whole entry): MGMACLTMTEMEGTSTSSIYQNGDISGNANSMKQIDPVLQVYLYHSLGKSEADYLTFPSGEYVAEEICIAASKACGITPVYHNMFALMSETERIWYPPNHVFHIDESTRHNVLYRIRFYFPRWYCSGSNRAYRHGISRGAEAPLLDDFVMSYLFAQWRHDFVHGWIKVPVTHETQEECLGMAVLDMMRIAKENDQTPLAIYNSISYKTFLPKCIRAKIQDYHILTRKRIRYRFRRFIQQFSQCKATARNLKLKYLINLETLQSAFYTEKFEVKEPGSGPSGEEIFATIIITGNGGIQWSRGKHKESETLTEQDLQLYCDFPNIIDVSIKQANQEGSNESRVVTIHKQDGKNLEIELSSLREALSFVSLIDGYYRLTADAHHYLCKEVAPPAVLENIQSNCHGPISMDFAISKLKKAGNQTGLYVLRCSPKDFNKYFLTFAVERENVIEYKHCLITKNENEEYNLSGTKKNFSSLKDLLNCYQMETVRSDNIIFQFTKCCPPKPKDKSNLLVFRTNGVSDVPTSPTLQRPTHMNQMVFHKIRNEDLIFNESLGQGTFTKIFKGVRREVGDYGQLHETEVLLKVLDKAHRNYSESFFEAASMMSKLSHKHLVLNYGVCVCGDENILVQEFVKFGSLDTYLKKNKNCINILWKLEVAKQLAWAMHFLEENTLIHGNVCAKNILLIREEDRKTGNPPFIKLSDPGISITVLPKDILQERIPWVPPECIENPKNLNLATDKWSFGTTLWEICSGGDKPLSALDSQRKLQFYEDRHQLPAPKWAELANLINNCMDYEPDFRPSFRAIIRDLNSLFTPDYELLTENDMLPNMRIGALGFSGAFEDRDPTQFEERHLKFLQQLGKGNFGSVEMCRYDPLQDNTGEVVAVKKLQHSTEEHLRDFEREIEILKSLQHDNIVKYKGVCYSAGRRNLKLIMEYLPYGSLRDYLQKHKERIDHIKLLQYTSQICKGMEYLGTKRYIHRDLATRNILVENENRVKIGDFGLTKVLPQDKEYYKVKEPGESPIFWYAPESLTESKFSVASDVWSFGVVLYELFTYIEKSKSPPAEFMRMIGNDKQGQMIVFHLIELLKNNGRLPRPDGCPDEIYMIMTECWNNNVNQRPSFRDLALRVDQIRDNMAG

IC50 [1]: ≤ 10 nM
IC50 [2]: 100 to 1000 nM
AUC [3, 4]: 247 ng·h/mL
Tmax [3, 4]: 2 h
AUC ([3]; Colon): 5950 ng·h/mL
Tmax ([3]; Colon): 4 h
AUC ([3]; Duodenum): 1510 ng·h/mL
Tmax ([3]; Duodenum): 0.5 h
AUC ([3]; Ileum): 24500 ng·h/mL
Tmax ([3]; Ileum): 2 h
AUC ([3]; Jejunum): 13300 ng·h/mL
Tmax ([3]; Jejunum): 0.5 h
Compound: Cc1nnc(-c2cnc3[nH]ccc3c2N[C@H]2C[C@@H](NS(=O)(=O)c3cccc(C#N)c3)C2)s1 [Example 75, 3-cyano-N-((1s,3s)-3-((5-(5-methyl-1,3,4-thiadiazol-2-yl)-1H-pyrrolo[2,3-b]pyridin-4-yl)amino)cyclobutyl)benzenesulfonamide]
